Data reported in patent US8741875B2, “Compounds as receptor modulators with therapeutic utility” (Allergan, Inc., priority 2009, dated 2014).

biological target: T1, human S1P1 receptor (Homo sapiens, UniProt P21453); assay: GTP γ35S binding assay for S1P1 activity; type: biochemical; settings: membranes, 30 min at 25° C., read-out: S1P1 EC50 (Activity potency: S1P1 receptor from GTP γ35S)
T1 construct: expressed in transfected cells; membranes used
Description: Compounds were tested for S1P1 activity using the GTP γ^35S binding assay. These compounds may be assessed for their ability to activate or block activation of the human S1P1 receptor in cells stably expressing the S1P1 receptor.
GTP γ^35S binding was measured in the medium containing (mM) HEPES 25, pH 7.4, MgCl2 10, NaCl 100, dithitothreitol 0.5, digitonin 0.003%, 0.2 nM GTP γ^35S, and 5 μg membrane protein in a volume of 150 μl. Test compounds were included in the concentration range from 0.08 to 5,000 nM unless indicated otherwise. Membranes were incubated with 100 μM 5′-adenylylimmidodiphosphate for 30 min, and subsequently with 10 μM GDP for 10 min on ice. Drug solutions and membrane were mixed, and then reactions were initiated by adding GTP γ^35S and continued for 30 min at 25° C. Reaction mixtures were filtered over Whatman GF/B filters under vacuum, and washed three times with 3 mL of ice-cold buffer (HEPES 25, pH7.4, MgCl2 10 and NaCl 100). Filters were dried and mixed with scintillant, and counted for ^35S activity using a β-counter. Agonist-induced GTP γ^35S binding was obtained by subtracting that in the absence of agonist. Binding data were analyzed using a non-linear regression method. In case of antagonist assay, the reaction mixture contained 10 nM S1P in the presence of test antagonist at concentrations ranging from 0.08 to 5000 nM.

T1 sequence (P21453 whole entry): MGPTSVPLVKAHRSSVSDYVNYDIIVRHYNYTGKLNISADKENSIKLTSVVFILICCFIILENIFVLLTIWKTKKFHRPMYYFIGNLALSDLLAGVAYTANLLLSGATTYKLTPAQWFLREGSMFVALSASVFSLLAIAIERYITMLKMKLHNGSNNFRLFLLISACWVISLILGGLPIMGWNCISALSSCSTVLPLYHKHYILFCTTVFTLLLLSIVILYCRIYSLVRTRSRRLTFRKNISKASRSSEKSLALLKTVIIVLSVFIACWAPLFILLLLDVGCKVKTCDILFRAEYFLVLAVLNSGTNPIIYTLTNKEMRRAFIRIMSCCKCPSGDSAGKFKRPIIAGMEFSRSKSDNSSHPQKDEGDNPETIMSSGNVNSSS

| Structure (SMILES) | EC50 [nM] |
| --- | --- |
| O=P(O)(O)CCCNCc1ccc(OCCCCCc2ccccc2)c(-c2ccco2)c1 [Compound 1, [3-({3-(2-furyl)-4-[(5-phenylpentyl)oxy]benzyl}amino)propyl]phosphonic acid] | 0.9 |
| O=P(O)(O)CCCNCc1ccc(OCCCCCc2ccccc2)c(-c2ncco2)c1 [Compound 2, [3-({3-(1,3-oxazol-2-yl)-4-[(5-phenylpentyl)oxy]benzyl}amino)propyl]phosphonic acid] | 11.9 |
| O=P(O)(O)CCCNCc1ccc(OCCCCCc2ccccc2)c(-c2nccs2)c1 [Compound 3, [3-({4-[(5-phenylpentyl)oxy]-3-(1,3-thiazol-2-yl)benzyl}amino)propyl]phosphonic acid] | 2 |
| O=P(O)(O)CCCNCc1ccc(OCCCCCc2ccccc2)c(-c2ccoc2)c1 [Compound 4, [3-({3-(3-furyl)-4-[(5-phenylpentyl)oxy]benzyl}amino)propyl]phosphonic acid] | 0.6 |
| O=P(O)(O)CCCNCc1ccc(OCCCCCc2ccccc2)c(-c2ccsc2)c1 [Compound 5, [3-({4-[(5-phenylpentyl)oxy]-3-(3-thienyl)benzyl}amino)propyl]phosphonic acid] | 3.3 |
| CC(C)Cc1ccc(CCCOc2ccc(CNCCCP(=O)(O)O)cc2-c2cccs2)cc1 [Compound 7, [3-({4-[3-(4-isobutylphenyl)propoxy]-3-(2-thienyl)benzyl}amino)propyl]phosphonic acid] | 14.9 |
| O=P(O)(O)CCCNCc1ccc(OCCCCCc2ccccc2)c(C2=CCCC2)c1 [Compound 8, [3-({3-cyclopent-1-en-1-yl-4-[(5-phenylpentyl)oxy]benzyl}amino)propyl]phosphonic acid] | 3.4 |
| O=P(O)(O)OCCNCc1ccc(OCCCCCc2ccccc2)c(-c2cccs2)c1 [Compound 9, 2-({4-[(5-phenylpentyl)oxy]-3-(2-thienyl)benzyl}amino)ethyl dihydrogen phosphate] | 1.5 |
| O=S(=O)(O)CCCNCc1ccc(OCCCCCc2ccccc2)c(-c2cccs2)c1 [Compound 10, 3-({4-[(5-phenylpentyl)oxy]-3-(2-thienyl)benzyl}amino)propane-1-sulfonic acid] | 10.1 |
| CP(=O)(O)CCCNCc1ccc(OCCCCCc2ccccc2)c(-c2cccs2)c1 [Compound 11, methyl[3-({4-[(5-phenylpentyl)oxy]-3-(2-thienyl)benzyl}amino)propyl]phosphinic acid] | 23 |
| CC(CO)NCc1ccc(OCCCCCc2ccccc2)c(-c2cccs2)c1 (stereo not shown) [Compound 12, 2-({4-[(5-phenylpentyl)oxy]-3-(2-thienyl)benzyl}amino)propan-1-ol] | 241 |
| OCC(CO)NCc1ccc(OCCCCCc2ccccc2)c(-c2cccs2)c1 [Compound 13, 2-({4-[(5-phenylpentyl)oxy]-3-(2-thienyl)benzyl}amino)propane-1,3-diol] | 714 |
| O=P(O)(O)CCCNCc1ccc(OCCCCCc2ccccc2)c(-c2ccoc2)n1 [Compound 14, {3-[({6-(3-furyl)-5-[(5-phenylpentyl)oxy]pyridin-2-yl}methyl)amino]propyl}phosphonic acid] | 1 |
| O=P(O)(O)CCCNCc1ccc(OCCCCCc2ccccc2)c(-c2cccs2)n1 [Compound 15, {3-[({5-[(5-phenylpentyl)oxy]-6-(2-thienyl)pyridin-2-yl}methyl)amino]propyl}phosphonic acid] | 0.77 |
| CCCCCCCCCOc1ccc(CNCCCP(=O)(O)O)cc1-c1cccs1 [Compound 16, (3-{[4-(nonyloxy)-3-(2-thienyl)benzyl]amino}propyl)phosphonic acid] | 517 |
| CCCCCCCCCCOc1ccc(CNCCCP(=O)(O)O)cc1-c1cccs1 [Compound 17, (3-{[4-(decyloxy)-3-(2-thienyl)benzyl]amino}propyl)phosphonic acid] | 294 |
| O=P(O)(O)CCCNCc1ccc(OCCCCCc2ccccc2)c(-c2ccc(F)s2)c1 [Compound 18] | 2 |
| COc1cccc(CCCCCOc2ccc(CNCCCP(=O)(O)O)cc2-c2cccs2)c1 [Compound 19, (3-{[4-{[5-(3-methoxyphenyl)pentyl]oxy}-3-(2-thienyl)benzyl]amino}propyl)phosphonic acid] | 1120 |
| COc1ccc(CCCCCOc2ccc(CNCCCP(=O)(O)O)cc2-c2cccs2)cc1 [Compound 20, (3-{[4-{[5-(4-methoxyphenyl)pentyl]oxy}-3-(2-thienyl)benzyl]amino}propyl)phosphonic acid] | 48.6 |

| Structure (SMILES) | EC50 [nM] |
| --- | --- |
| O=P(O)(O)CCCNCc1ccc(OCCCCCc2ccc(F)cc2)c(-c2cccs2)c1 [Compound 21, (3-{[4-{[5-(4-fluorophenyl)pentyl]oxy}-3-(2-thienyl)benzyl]amino}propyl)phosphonic acid] | 19.7 |
| O=P(O)(O)CCCNCc1ccc(OCCCCCc2cccc(C(F)(F)F)c2)c(-c2ccco2)c1 [Compound 22, (3-{[3-(2-furyl)-4-({5-[3-(trifluoromethyl)phenyl]pentyl}oxy)benzyl]amino}propyl)phosphonic acid] | 65.7 |
| COc1cccc(CCCCCOc2ccc(CNCCCP(=O)(O)O)cc2-c2ccco2)c1 [Compound 23, (3-{[3-(2-furyl)-4-{[5-(3-methoxyphenyl)pentyl]oxy}benzyl]amino}propyl)phosphonic acid] | 240 |
| O=P(O)(O)CCCNCc1ccc(OCCCCCc2ccc(F)cc2)c(-c2ccco2)c1 [Compound 24, (3-{[4-{[5-(4-fluorophenyl)pentyl]oxy}-3-(2-furyl)benzyl]amino}propyl)phosphonic acid] | 0.98 |
| O=P(O)(O)CCCNCc1ccc(OCCCCc2ccc(F)cc2)c(-c2cccs2)c1 [Compound 25, [3-({4-[4-(4-fluorophenyl)butoxy]-3-(2-thienyl)benzyl}amino)propyl]phosphonic acid] | 67.5 |
| O=P(O)(O)CCCNCc1ccc(OCCCCc2ccc(F)cc2)c(-c2ccco2)c1 [Compound 26, [3-({4-[4-(4-fluorophenyl)butoxy]-3-(2-furyl)benzyl}amino)propyl]phosphonic acid] | 98.9 |
| COc1ccc(CCCCCOc2ccc(CNCCCP(=O)(O)O)cc2-c2ccco2)cc1F [Compound 27, (3-{[4-{[5-(3-fluoro-4-methoxyphenyl)pentyl]oxy}-3-(2-furyl)benzyl]amino}propyl)phosphonic acid] | 7 |
| COc1ccc(CCCCCOc2ccc(CNCCCP(=O)(O)O)cc2-c2cccs2)cc1F [Compound 28, (3-{[4-{[5-(3-fluoro-4-methoxyphenyl)pentyl]oxy}-3-(2-thienyl)benzyl]amino}propyl)phosphonic acid] | 1.9 |
| O=P(O)(O)CCCNCc1ccc(OCCCCCc2ccc(Cl)cc2)c(-c2ccco2)c1 [Compound 29, (3-{[4-{[5-(4-chlorophenyl)pentyl]oxy}-3-(2-furyl)benzyl]amino}propyl)phosphonic acid] | 5.7 |
| O=P(O)(O)CCCNCc1ccc(OCCCCCc2ccc(Cl)cc2)c(-c2cccs2)c1 [Compound 30, (3-{[4-{[5-(4-chlorophenyl)pentyl]oxy}-3-(2-thienyl)benzyl]amino}propyl)phosphonic acid] | 8 |
| COc1ccc(CCCCCOc2ccc(CNCCCP(=O)(O)O)cc2-c2ccco2)cc1Cl [Compound 31, (3-{[4-{[5-(3-chloro-4-methoxyphenyl)pentyl]oxy}-3-(2-furyl)benzyl]amino}propyl)phosphonic acid] | 8.4 |
| COc1ccc(CCCCCOc2ccc(CNCCCP(=O)(O)O)cc2-c2cccs2)cc1Cl [Compound 32, (3-{[4-{[5-(3-chloro-4-methoxyphenyl)pentyl]oxy}-3-(2-thienyl)benzyl]amino}propyl)phosphonic acid] | 6.5 |
| COc1ccc(CCCCCOc2ccc(CNCCCP(=O)(O)O)cc2-c2ccco2)cc1 [Compound 33, (3-{[3-(2-furyl)-4-{[5-(4-methoxyphenyl)pentyl]oxy}benzyl]amino}propyl)phosphonic acid] | 7.1 |
| COc1cccc(CCCCCOc2ccc(CNCCCP(=O)(O)O)cc2-c2ccoc2)c1 [Compound 34, (3-{[3-(3-furyl)-4-{[5-(3-methoxyphenyl)pentyl]oxy}benzyl]amino}propyl)phosphonic acid] | 12.5 |
| O=P(O)(O)CCCNCc1ccc(OCCCCCc2ccccc2)c(-c2cocn2)c1 [Compound 35, [3-({3-(1,3-oxazol-4-yl)-4-[(5-phenylpentyl)oxy]benzyl}amino)propyl]phosphonic acid] | 54.1 |
| CC(CCNCc1ccc(OCCCCCc2ccccc2)c(-c2ccco2)c1)P(=O)(O)O (stereo not shown) [Compound 36, [3-({3-(2-furyl)-4-[(5-phenylpentyl)oxy]benzyl}amino)-1-methylpropyl]phosphonic acid] | 18.5 |
| O=[PH](O)CCCNCc1ccc(OCCCCCc2ccccc2)c(-c2cccs2)c1 [Compound 37, [3-({4-[(5-phenylpentyl)oxy]-3-(2-thienyl)benzyl}amino)propyl]phosphinic acid] | 52.6 |
| O=P(O)(O)CCCNCc1ccc(OCCCCCc2ccccc2)c(-c2ccc(F)o2)c1 [Compound 38, [3-({3-(5-fluoro-2-furyl)-4-[(5-phenylpentyl)oxy]benzyl}amino)propyl]phosphonic acid] | 1.9 |
